ChEMBL document CHEMBL4270561, “Biological activity of doubly modified salinomycin analogs - Evaluation in vitro and ex vivo” (Eur J Med Chem, 2018)
Calls of active or inactive are those of the source. The calls are words filed in the database; no cut-off is given here.

Experiments:
[1] = Cell cycle arrest in human ALL5 cells assessed as accumulation at S-phase at 5 times antiproliferative IC50 after 48 hrs by propidium iodide staining based flow cytometry (reference value: 9.82%); format: functional
[2] = Cell cycle arrest in human ALL5 cells assessed as accumulation at sub-G1 phase at 5 times antiproliferative IC50 after 24 hrs by propidium iodide staining based flow cytometry (reference value: 6.07%); format: functional
[3] = Cell cycle arrest in human ALL5 cells assessed as accumulation at G2/M-phase at 5 times antiproliferative IC50 after 96 hrs by propidium iodide staining based flow cytometry (reference value: 11.1%); format: functional
[4] = Cell cycle arrest in human ALL5 cells assessed as accumulation at G0/G1 phase at 5 times antiproliferative IC50 after 24 hrs by propidium iodide staining based flow cytometry (reference value: 79.7%); format: functional
[5] = Antiproliferative activity against human LoVo/DX cells after 72 hrs by SRB assay; format: functional, cell-based
[6] = Cell cycle arrest in human ALL5 cells assessed as accumulation at sub-G1 phase at 5 times antiproliferative IC50 after 96 hrs by propidium iodide staining based flow cytometry (reference value: 12%); format: functional
[7] = Cell cycle arrest in human ALL5 cells assessed as accumulation at G2/M-phase at 5 times antiproliferative IC50 after 24 hrs by propidium iodide staining based flow cytometry (reference value: 7.98%); format: functional
MCF7 = experiment: Antiproliferative activity against human MCF7 cells after 72 hrs by SRB assay; format: functional, cell-based; details: MCF7, 72 h
MCF-10A [8] = experiment: Antiproliferative activity against human MCF10A cells at 100 ug/ml after 72 hrs by SRB assay relative to control; format: cell-based
LoVo [9] = experiment: Antiproliferative activity against human LoVo cells after 72 hrs by SRB assay; format: functional, cell-based
[10] = Cell cycle arrest in human ALL5 cells assessed as accumulation at sub-G1 phase at 5 times antiproliferative IC50 after 48 hrs by propidium iodide staining based flow cytometry (reference value: 7.8%); format: functional
SK-BR-3 [11] = experiment: Antiproliferative activity against human SK-BR-3 cells at 100 ug/ml after 72 hrs by SRB assay relative to control; format: functional
[12] = Cell cycle arrest in human ALL5 cells assessed as accumulation at G2/M-phase at 5 times antiproliferative IC50 after 48 hrs by propidium iodide staining based flow cytometry (reference value: 13.2%); format: functional
[13] = Antiproliferative activity against human ALL5 cells after 120 hrs by MTT assay; format: functional, cell-based; details: ALL5, 120 h
[14] = Resistance index, ratio of IC50 for human LoVo/DX cells to IC50 for human LoVo cells; format: functional
[15] = Cell cycle arrest in human ALL5 cells assessed as accumulation at S-phase at 5 times antiproliferative IC50 after 96 hrs by propidium iodide staining based flow cytometry (reference value: 7.52%); format: functional
[16] = Cell cycle arrest in human ALL5 cells assessed as accumulation at G0/G1 phase at 5 times antiproliferative IC50 after 96 hrs by propidium iodide staining based flow cytometry (reference value: 69.8%); format: functional
JIMT-1 [17] = experiment: Antiproliferative activity against human JIMT1 cells after 72 hrs by SRB assay; format: functional, cell-based; details: JIMT-1, 72 h
[18] = Cell cycle arrest in human ALL5 cells assessed as accumulation at G0/G1 phase at 5 times antiproliferative IC50 after 48 hrs by propidium iodide staining based flow cytometry (reference value: 69.6%); format: functional
[19] = Cell cycle arrest in human ALL5 cells assessed as accumulation at S-phase at 5 times antiproliferative IC50 after 24 hrs by propidium iodide staining based flow cytometry (reference value: 6.76%); format: functional
[20] = Antiproliferative activity against human ALL5 cells at 10 uM after 120 hrs by MTT assay relative to control; format: functional
SK-BR-3 [21] = experiment: Antiproliferative activity against human SK-BR-3 cells after 72 hrs by SRB assay; format: functional, cell-based; details: SK-BR-3, 72 h
MCF-10A [22] = experiment: Antiproliferative activity against human MCF10A cells after 72 hrs by SRB assay; format: cell-based
[23] = Selectivity index, ratio of IC50 for human MCF10A cells to IC50 for human LoVo/DX cells; format: toxicity; details: MCF10A cells versus LoVo/DX cells, read-out: Ratio IC50
[24] = Selectivity index, ratio of IC50 for human MCF10A cells to IC50 for human MCF7 cells; format: toxicity; details: MCF10A cells versus MCF7 cells, read-out: Ratio IC50
[25] = Selectivity index, ratio of IC50 for human MCF10A cells to IC50 for human SK-BR-3 cells; format: toxicity; details: MCF10A cells versus SK-BR-3 cells, read-out: Ratio IC50
[26] = Selectivity index, ratio of IC50 for human MCF10A cells to IC50 for human LoVo cells; format: toxicity; details: MCF10A cells versus LoVo cells, read-out: Ratio IC50
[27] = Selectivity index, ratio of IC50 for human MCF10A cells to IC50 for human JIMT1 cells; format: toxicity; details: MCF10A cells versus JIMT1 cells, read-out: Ratio IC50
Homo sapiens [28] = organism: Homo sapiens; experiment: Induction of apoptosis in human ALL5 cells assessed as increase in p53 expression at 9.5 uM up to 96 hrs by immunoblot analysis; format: functional, cell-based
Homo sapiens [29] = organism: Homo sapiens; experiment: Induction of apoptosis in human ALL5 cells assessed as increase in cleaved PARP expression at 9.5 uM up to 48 hrs by immunoblot analysis; format: functional, cell-based
JIMT-1 [30] = experiment: Antiproliferative activity against human JIMT1 cells at 100 ug/ml after 72 hrs by SRB assay relative to control; format: functional
Homo sapiens [31] = organism: Homo sapiens; experiment: Induction of apoptosis in human ALL5 cells assessed as increase in cleaved PARP expression at 9.5 uM after 96 hrs by immunoblot analysis; format: functional, cell-based
LoVo [32] = experiment: Antiproliferative activity against human LoVo cells at 100 ug/ml after 72 hrs by SRB assay relative to control; format: functional
Homo sapiens [33] = organism: Homo sapiens; experiment: Induction of apoptosis in human ALL5 cells assessed as increase in cleaved PARP expression at 0.2 uM up to 96 hrs by immunoblot analysis; format: functional, cell-based
Homo sapiens [34] = organism: Homo sapiens; experiment: Induction of apoptosis in human ALL5 cells assessed as increase in p53 expression at 0.2 uM up to 96 hrs by immunoblot analysis; format: functional, cell-based

Structure (SMILES)	Activity [1]	Activity [2]	Activity [3]	Activity [4]	IC50 [5]	Activity [6]	Activity [7]	IC50 (MCF7)	Activity (MCF-10A [8])	IC50 (LoVo [9])	Activity [10]	Activity (SK-BR-3 [11])	Activity [12]	IC50 [13]	Ratio IC50 [14]	Activity [15]	Activity [16]	IC50 (JIMT-1 [17])	Activity [18]	Activity [19]	also measured
C#CCOC(=O)[C@H](CC)[C@H]1CC[C@H](C)[C@H]([C@@H](C)[C@H](O)[C@H](C)C(=O)[C@H](CC)[C@H]2O[C@]3(C=C[C@@H](OC(C)=O)[C@]4(CC[C@@](C)([C@H]5CC[C@](O)(CC)[C@H](C)O5)O4)O3)[C@H](C)C[C@@H]2C)O1	5.62%	5.15%	10.6%	80.2%	5.2 µM	26.8%	9.12%	7.4 µM	<= 50%	12 µM	9.68%	<=50%	11.5%	2.6 µM	0.43	5.06%	57.7%	27 µM	73.5%	5.99%	–
C#CCNC(=O)[C@H](CC)[C@H]1CC[C@H](C)[C@H]([C@@H](C)[C@H](O)[C@H](C)C(=O)[C@H](CC)[C@H]2O[C@]3(C=C[C@@H](O)[C@]4(CC[C@@](C)([C@H]5CC[C@](O)(CC)[C@H](C)O5)O4)O3)[C@H](C)C[C@@H]2C)O1	–	–	–	–	3.1 µM	–	–	10 µM	–	7.7 µM	–	–	–	–	0.4	–	–	29 µM	–	–	Activity [20]: <=50%; IC50 (SK-BR-3 [21]): 31 µM; IC50 (MCF-10A [22]): 62 µM; selectivity ratio [23]: 20; selectivity ratio [24]: 6.2; selectivity ratio [25]: 2; selectivity ratio [26]: 8.1; selectivity ratio [27]: 2.1
C#CCOC(=O)[C@H](CC)[C@H]1CC[C@H](C)[C@H]([C@@H](C)[C@H](O)[C@H](C)C(=O)[C@H](CC)[C@H]2O[C@]3(C=C[C@@H](OC(=O)OCC)[C@]4(CC[C@@](C)([C@H]5CC[C@](O)(CC)[C@H](C)O5)O4)O3)[C@H](C)C[C@@H]2C)O1	5.9%	4.82%	7.59%	81.2%	8.1 µM	19.8%	8.79%	38 µM	<= 50%	–	10.6%	<=50%	8.29%	1.9 µM	–	5.03%	67.8%	–	75.6%	5.6%	Activity (Homo sapiens [28]): Active; Activity (Homo sapiens [29]): inactive; Activity (JIMT-1 [30]): <=50%; Activity (Homo sapiens [31]): Active; Activity (LoVo [32]): <=50%
COc1cccc2c1C(=O)c1c(O)c3c(c(O)c1C2=O)C[C@@](O)(C(=O)CO)C[C@@H]3O[C@H]1C[C@H](N)[C@H](O)[C@H](C)O1 [DOXORUBICIN]	3.23%	8.94%	2.16%	78.2%	10 µM	62.7%	8.96%	0.26 µM	–	0.24 µM	27.4%	–	2.76%	0.04 µM	–	–	31.6%	0.59 µM	66.8%	–	IC50 (SK-BR-3 [21]): 0.37 µM; IC50 (MCF-10A [22]): 0.58 µM; Activity (Homo sapiens [33]): Active; Activity (Homo sapiens [34]): Active
C#CCOC(=O)[C@H](CC)[C@H]1CC[C@H](C)[C@H]([C@@H](C)[C@H](O)[C@H](C)C(=O)[C@H](CC)[C@H]2O[C@]3(C=C[C@@H](OC(=O)NCC)[C@]4(CC[C@@](C)([C@H]5CC[C@](O)(CC)[C@H](C)O5)O4)O3)[C@H](C)C[C@@H]2C)O1	5.8%	6.58%	10.9%	78.8%	3.4 µM	43.6%	9.7%	5 µM	<= 50%	5.2 µM	19.6%	–	13.8%	6.9 µM	0.65	3.67%	42%	7.4 µM	61.1%	5.16%	IC50 (SK-BR-3 [21]): 25 µM
CC[C@@H](C(=O)[C@@H](C)[C@@H](O)[C@H](C)[C@@H]1O[C@@H]([C@@H](CC)C(=O)OCC(F)(F)F)CC[C@@H]1C)[C@H]1O[C@]2(C=C[C@@H](OC(C)=O)[C@]3(CC[C@@](C)([C@H]4CC[C@](O)(CC)[C@H](C)O4)O3)O2)[C@H](C)C[C@@H]1C	–	–	–	–	18 µM	–	–	12 µM	<= 50%	8.7 µM	–	<=50%	–	–	2.1	–	–	39 µM	–	–	Activity [20]: <=50%
